These results are taken from patent US8835478B2, “Treatment for cancer” (Pitney Pharmaceuticals PTY Limited, priority 2005, dated 2014).

Assay [1] concerns 1A9PTX22 cells. In words: Sulforhodamine B (SRB) cell proliferation assay, 5-day treatment, 1A9PTX22 (paclitaxel resistant). As to conditions: for effect on cell proliferation: 1A9PTX22. It counts as cell-based, human. The protocol: (§1) Human ovarian carcinoma cell lines OVCAR-3, SKOV-3, 1A9 and 1A9PTX22 were used. OVCAR-3 and SKOV-3 cells were obtained from the American Type Culture Collection (ATCC) and maintained on RPMI medium and McCoy5A medium respectively according to ATCC instructions. 1A9 is a clone of the human ovarian carcinoma cell line, A2780 (Sackett et al., 1997). 1A9PTX22 is a paclitaxel resistant subclone of 1A9 cells, isolated as an individual clone in a single step selection by exposing 1A9 cells to 5 ng/ml paclitaxel in the presence of 5 μg/ml verapamil, a Pgp antagonist (Giannakakou et al., 1997). Cells were maintained in 15 ng/ml paclitaxel and 5 μg/ml verapamil continuously.
(§2) Sulforhodamine B (SRB) colorimetric assay was used to study the effect of albendazole, paclitaxel or their combination on tumour cell cytotoxicity in vitro.
Cells were harvested from exponential phase cultures by trypsinization, counted and plated in 96-well plates. Optimal seeding densities for each cell line were determined to ensure exponential growth during a 5-day assay. Seeding densities were 5000, 1000, 400 and 3500 cells per well for OVCAR-3, SKOV-3, 1A9 and 1A9PTX22 cells, respectively. Cells plated in 96-well tissue culture plates were treated with 100 μl cell culture medium containing various concentrations of albendazole, paclitaxel or a combination of the two. […] Treatment media were replaced on alternate days. At the end of the treatment period (5 days), wells were assayed for cellular protein content. The SRB assay was performed according to the method described by Skehan et al. (1990) and Papazisis at al. (1997), with minor modifications. The culture medium was aspirated prior to fixation of the cells by the addition of 100 μl 10% cold trichloroacetic acid. After an hour incubation at 4° C., cells were washed five times with water. The cells were then stained with 200 μl 0.4% SRB dissolved in 1% acetic acid for at least 15 min and subsequently washed four times with 1% acetic acid to remove unbound stain. The plates were left to dry at room temperature and bound protein stain was solubilized with 100 μl 10 mM un-buffered Tris base [tris(hydroxymethyl)aminomethane)] before reading the optical density (OD) at 570 nm.
For each of the four cell lines used in this study, sensitivity of each line was initially tested by incubating cells with various concentrations of albendazole or paclitaxel for 5 days. The SRB assay was performed at the end of the treatment period to determine cell response to drug treatment.

Assay [2] has as its system SKOV-3 cells. In words: Sulforhodamine B (SRB) cell proliferation assay, 5-day treatment, SKOV-3. The conditions noted are these: 5 days. The class given is cell-based, human. How it is done: as §1, §2
(§3) Cells were harvested from exponential phase cultures by trypsinization, counted and plated in 96-well plates. Optimal seeding densities for each cell line were determined to ensure exponential growth during a 5-day assay. Seeding densities were 5000, 1000, 400 and 3500 cells per well for OVCAR-3, SKOV-3, 1A9 and 1A9PTX22 cells, respectively. […] The plates were left to dry at room temperature and bound protein stain was solubilized with 100 μl 10 mM un-buffered Tris base [tris(hydroxymethyl)aminomethane)] before reading the optical density (OD) at 570 nm. […]

The subject of assay [3] is 1A9 cells. In words: Sulforhodamine B (SRB) cell proliferation assay, 5-day treatment, 1A9. It counts as cell-based. The conditions noted are these: Homo sapiens. The protocol: as §1, §2, §3
Assay [4] deals with 1A9PTX22 cells. In words: SRB assay, 72 hours, cross resistance of 1A9PTX22 compared to parent line 1A9. The conditions noted are these: for concentration at which partial resistance of 1A9PTX22 is apparent: 1A9PTX22 vs 1A9, p<0.001; for degree of sensitivity of 1A9PTX22 cells compared to parent cell line 1A9: various concentrations. The class given is cell-based, human. The protocol: Cells were harvested from exponential phase cultures by trypsinization, counted and plated in 96-well plates. Optimal seeding densities for each cell line were determined to ensure exponential growth during a 5-day assay. Seeding densities were 5000, 1000, 400 and 3500 cells per well for OVCAR-3, SKOV-3, 1A9 and 1A9PTX22 cells, respectively. Cells plated in 96-well tissue culture plates were treated with 100 μl cell culture medium containing various concentrations of albendazole, paclitaxel or a combination of the two. Both albendazole and paclitaxel were originally made up in absolute ethanol and subsequently diluted with cell culture medium to give the desired drug concentrations with a final ethanol concentration of 1%. Treatment media were replaced on alternate days. At the end of the treatment period (5 days), wells were assayed for cellular protein content. The SRB assay was performed according to the method described by Skehan et al. (1990) and Papazisis at al. (1997), with minor modifications. The culture medium was aspirated prior to fixation of the cells by the addition of 100 μl 10% cold trichloroacetic acid. After an hour incubation at 4° C., cells were washed five times with water. The cells were then stained with 200 μl 0.4% SRB dissolved in 1% acetic acid for at least 15 min and subsequently washed four times with 1% acetic acid to remove unbound stain. The plates were left to dry at room temperature and bound protein stain was solubilized with 100 μl 10 mM un-buffered Tris base [tris(hydroxymethyl)aminomethane)] before reading the optical density (OD) at 570 nm.
1A9 and 1A9PTX22 cells plated in 96-well tissue culture plates were treated with 100 μl cell culture medium containing various concentrations of vincristine and colchicine for 72 hours and SRB assays conducted as described above. As for paclitaxel (see Example 1), both vincristine and colchicine were originally made up in absolute ethanol and subsequently diluted with cell culture medium to give the desired drug concentrations with a final ethanol concentration of 1%. The results are illustrated in FIGS. 5A (vincristine) and 5B (colchicine). […] The partial resistance of 1A9PTX22 is apparent for vincristine at concentrations of 5 nM and above and for colchicine at 100 nM and above (p<0.001).
(In SRB staining, fixed cells bind dye roughly in proportion to their protein.)

A value given as a limit tells only on which side of the number the result lay.

Turning to `CCCSc1ccc2nc(NC(=O)OC)[nH]c2c1` [albendazole], the “sensitivity of 1A9PTX22 compared to the parent line (1A9)” value in assay [1] (1A9PTX22 vs 1A9, various concentrations, 5 days) is listed as “even more sensitive”. In assay [1] (Homo sapiens, 1A9/ptx-22, 120 h, read-out: inhibitory effect on proliferation), the inhibition at 1 µM was determined as 53%. In addition, the “reduction in cell proliferation” value in assay [2] (0.25 μM albendazole alone) was 48.4%. Moreover, in assay [3] (1A9, 120 h, read-out: inhibition of proliferation), the inhibition at 0.1 µM turned out to be 11.8%.
In the case of `COc1cc2c(c(OC)c1OC)-c1ccc(OC)c(=O)cc1[C@@H](NC(C)=O)CC2` [colchicine], in assay [4], the “concentration at which partial resistance of 1A9PTX22 is apparent” value was not below 100 nM and the “degree of sensitivity of 1A9PTX22 cells compared to parent cell line 1A9” value is on record as “significantly reduced”.
For `CC(=O)O[C@H]1C(=O)[C@@]2(C)[C@H]([C@H](OC(=O)c3ccccc3)[C@]3(O)C[C@H](OC(=O)[C@H](O)[C@@H](NC(=O)c4ccccc4)c4ccccc4)C(C)=C1C3(C)C)[C@]1(OC(C)=O)CO[C@@H]1C[C@@H]2O` [paclitaxel], the “effect on cell proliferation” value in assay [1] (1.0 nM paclitaxel alone, 5 days) is “not affected”; in assay [1] (5.0 nM paclitaxel alone, 5 days), “not affected”. Moreover, the “increase in paclitaxel concentration required in paclitaxel-resistant cell lines for a response similar to paclitaxel-sensitive cells” value in assay [1] (paclitaxel alone, resistant vs sensitive cells) is reported as “approximately 50 fold”. Further, the inhibition at 10 pM in assay [2] (Homo sapiens, SK-OV-3, 120 h, 0.01 nM paclitaxel alone) was determined as 14.5%. In addition, the inhibition at 0.0001 µM in assay [3] (120 h, 1A9, 0.1 nM paclitaxel alone, 5 days) is 21.8%.
With `CC[C@]1(O)C[C@H]2CN(CCc3c([nH]c4ccccc34)[C@@](C(=O)OC)(c3cc4c(cc3OC)N(C=O)[C@H]3[C@@](O)(C(=O)OC)[C@H](OC(C)=O)[C@]5(CC)C=CCN6CC[C@]43[C@@H]65)C2)C1` [vincristine], in assay [4], the “concentration at which partial resistance of 1A9PTX22 is apparent” value is not below 5 nM and the “degree of sensitivity of 1A9PTX22 cells compared to parent cell line 1A9” value is recorded as “significantly reduced”.
